For 9 compounds, GI50 and TGI results are on record in PubChem BioAssay (NCI).

Test systems include MDA-MB-231 breast; 786-0 renal; NCI-H23 lung; HOP-62 NSCLC; LOX IMVI melanoma; OVCAR-4 ovarian; DU-145 prostate; HCT-116 colon; COLO 205 colon; NCI-H522 lung.
Experiment in all cases: inhibition of tumour cell growth, NCI panel, 48 h

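Grown in 96-well plates, cells were treated for 48 hours with each compound at five concentrations. Insufficient inhibition: endpoint recorded as highest concentration tested. The concentration for 50% growth inhibition is given as GI50. TGI is the concentration that stops growth completely.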

Regarding `CCOC(=O)C1=C(C)N(Cc2ccc(Cl)cc2Cl)C2(O)C=CC(=O)C3=C(O)c4ccccc4C(=O)C312` (configuration not stated), the GI50 in the experiment with MDA-MB-231 breast was 3.96 µM; with 786-0 renal, 3.54 µM; with NCI-H23 lung it was 3.61 µM; in the experiment on HOP-62 NSCLC it was 3.56 µM; in the experiment with LOX IMVI melanoma it was 2.75 µM; in the experiment with OVCAR-4 ovarian, 11.5 µM. In addition, the GI50 is 7.99 µM with DU-145 prostate, 3.19 µM in the experiment on HCT-116 colon, 4.41 µM in the experiment on COLO 205 colon and 11.4 µM in the experiment on NCI-H522 lung. Moreover, the TGI in the experiment with MDA-MB-231 breast was 12.8 µM; in the experiment with 786-0 renal, 15.2 µM; in the experiment with NCI-H23 lung, 16.1 µM; in the experiment on HOP-62 NSCLC it was 15 µM; in the experiment on LOX IMVI melanoma it was 16.1 µM; in the experiment on OVCAR-4 ovarian, above 100 µM. In addition, the TGI with DU-145 prostate is 28.8 µM; with HCT-116 colon it was 11.6 µM; in the experiment on COLO 205 colon, 20.6 µM; with NCI-H522 lung, above 100 µM.
Regarding `O=C1C=CC(=O)N1c1cccc(N2C(=O)C=CC2=O)c1`, the GI50 with MDA-MB-231 breast was 1.97 µM; in the experiment with 786-0 renal, 1.84 µM; with NCI-H23 lung, 2.54 µM; with HOP-62 NSCLC it was 16.8 µM; with LOX IMVI melanoma, 2.02 µM; in the experiment on DU-145 prostate, 10.9 µM. Besides, the GI50 in the experiment on HCT-116 colon is 1.7 µM; with COLO 205 colon, 1.39 µM; in the experiment on NCI-H522 lung, 1.62 µM. The TGI was 4.53 µM in the experiment on MDA-MB-231 breast; 3.44 µM in the experiment with 786-0 renal; 7.07 µM with NCI-H23 lung; 33.5 µM with HOP-62 NSCLC; 4.02 µM with LOX IMVI melanoma; 22.8 µM with DU-145 prostate. For the same compound, the TGI in the experiment with HCT-116 colon was 3.22 µM; in the experiment with COLO 205 colon, 2.88 µM; in the experiment on NCI-H522 lung it was 3.04 µM.
As for `CC(C(N)C(=O)NC(C(=O)O)C1OC(n2ccc(=O)[nH]c2=O)C(O)C1O)C(O)c1ccc(O)cn1` (configuration not stated), the TGI in the experiment on MDA-MB-231 breast, in the experiment with 786-0 renal, in the experiment with NCI-H23 lung, with HOP-62 NSCLC, in the experiment with LOX IMVI melanoma and in the experiment with DU-145 prostate was above 100 µM throughout. The TGI in the experiment with HCT-116 colon, with COLO 205 colon and in the experiment on NCI-H522 lung was above 100 µM throughout.
As for `C/C(O)=C(\C#N)C(=O)Nc1ccc(C(F)(F)F)cc1`, the GI50 was 26.3 µM with MDA-MB-231 breast; 34.3 µM in the experiment on 786-0 renal; 73.7 µM in the experiment on NCI-H23 lung; 77.9 µM with HOP-62 NSCLC; 8.21 µM in the experiment on LOX IMVI melanoma; 91 µM in the experiment on OVCAR-4 ovarian. In addition, the GI50 in the experiment with DU-145 prostate is 46.7 µM; in the experiment on HCT-116 colon it was 7.5 µM; in the experiment on COLO 205 colon it was 47.3 µM. In addition, the TGI in the experiment with MDA-MB-231 breast, in the experiment with 786-0 renal, with NCI-H23 lung, in the experiment on HOP-62 NSCLC, in the experiment with LOX IMVI melanoma and in the experiment with OVCAR-4 ovarian was above 100 µM throughout. The TGI in the experiment on DU-145 prostate, with HCT-116 colon and in the experiment on COLO 205 colon was above 100 µM throughout.
Regarding `C/C(=N\NC(=S)SCc1ccccc1)c1ccccn1`, the TGI in the experiment with MDA-MB-231 breast is 4.08 µM; in the experiment on 786-0 renal, 10.2 µM; with NCI-H23 lung, 9.31 µM; with LOX IMVI melanoma, 9.56 µM; in the experiment on OVCAR-4 ovarian, 1.52 µM; in the experiment on DU-145 prostate, 16.9 µM. Further, the TGI in the experiment with HCT-116 colon was 5.96 µM; in the experiment with COLO 205 colon it was 0.464 µM; in the experiment with NCI-H522 lung, 2.79 µM.
Turning to `O=NNc1ccc(Sc2ccc(NN=O)cn2)nc1`, the TGI in the experiment with MDA-MB-231 breast, with 786-0 renal, with NCI-H23 lung, with HOP-62 NSCLC, in the experiment on OVCAR-4 ovarian and with DU-145 prostate was above 100 µM throughout. Further, the TGI with HCT-116 colon, with COLO 205 colon and in the experiment on NCI-H522 lung was above 100 µM in each case.
As to `CC1(C)NCCC[C@]2(C)[C@H]3CC[C@@H]4[C@H]5[C@H](C(=O)/C=C/c6ccccn6)CC[C@]5(CO)CC[C@@]4(C)[C@]3(C)CC[C@@H]12`, the GI50 with MDA-MB-231 breast was 2.29 µM; with 786-0 renal it was 2.43 µM; in the experiment on NCI-H23 lung it was 3.33 µM; in the experiment with HOP-62 NSCLC it was 6.23 µM; with OVCAR-4 ovarian, 3.51 µM; with DU-145 prostate, 3.56 µM. The results for the GI50 with HCT-116 colon, with COLO 205 colon and in the experiment with NCI-H522 lung were 1.72 µM, 2.07 µM and 1.81 µM, respectively. Further, the TGI is 5.64 µM in the experiment on MDA-MB-231 breast; 6.26 µM in the experiment with 786-0 renal; 14 µM with NCI-H23 lung; 29.4 µM in the experiment with HOP-62 NSCLC; 13 µM in the experiment with OVCAR-4 ovarian; 12.4 µM in the experiment on DU-145 prostate. For the same compound, the TGI in the experiment with HCT-116 colon came to 3.15 µM; in the experiment with COLO 205 colon, 4.28 µM; in the experiment with NCI-H522 lung, 4.45 µM.
Take `NS(=O)(=O)c1ccc(N(/C=C/C(=O)C(F)(F)F)Cc2ccc(Cl)cc2)cc1`: the GI50 with MDA-MB-231 breast is 18.3 µM; with 786-0 renal it was 13.2 µM; in the experiment with NCI-H23 lung it was 21.8 µM; in the experiment on HOP-62 NSCLC it was 20 µM; in the experiment with LOX IMVI melanoma, 21.8 µM; with DU-145 prostate, 22.1 µM. Also, the GI50 with HCT-116 colon was 14.7 µM; in the experiment with COLO 205 colon, 37.3 µM; in the experiment with NCI-H522 lung it was 12.6 µM. The TGI in the experiment with MDA-MB-231 breast was 57.8 µM; in the experiment with 786-0 renal, 27 µM; in the experiment with NCI-H23 lung it was 64.3 µM; in the experiment on HOP-62 NSCLC, 53.8 µM; in the experiment on LOX IMVI melanoma it was 42.9 µM; in the experiment on DU-145 prostate it was 66 µM. Moreover, the TGI with HCT-116 colon was 28.1 µM; in the experiment with COLO 205 colon, above 100 µM; in the experiment on NCI-H522 lung it was 38.4 µM.
For `CN(C)CCNc1c2ccccc2nc2oc3ccccc3c12`, the GI50 with MDA-MB-231 breast is 6.47 µM; in the experiment with 786-0 renal, 5.39 µM; in the experiment on HOP-62 NSCLC, 7.97 µM; in the experiment on LOX IMVI melanoma it was 4.35 µM; with OVCAR-4 ovarian, 9.45 µM; with DU-145 prostate it was 4.35 µM. The GI50 with HCT-116 colon is 4.16 µM; with COLO 205 colon, 2.43 µM; in the experiment on NCI-H522 lung it was 4.6 µM. Besides, the TGI with MDA-MB-231 breast stood at 27.2 µM; in the experiment on 786-0 renal it was 29.2 µM; in the experiment with HOP-62 NSCLC it was 42.6 µM; in the experiment on LOX IMVI melanoma it was 14.9 µM; in the experiment with OVCAR-4 ovarian it was 37.9 µM; in the experiment with DU-145 prostate, 17.9 µM. Moreover, the TGI with HCT-116 colon was 23.7 µM; with COLO 205 colon, 10.3 µM; in the experiment with NCI-H522 lung it was 18.3 µM.
